Test results: patent publication US8192962B2, “Processes for detecting toxic substances” (Daikin Industries, Ltd., priority 2001, dated 2012)

Tested on: Genes belonging to other category
Experiment: DNA chip mRNA expression in yeast, genes belonging to other category (Table 9)
Format: cell-based, Saccharomyces cerevisiae S288C
Method in brief: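 In this screen, yeast in logarithmic growth are challenged for two hours with a toxic substance at a non-lethal inhibitory concentration. Their mRNA, converted to Cy3- or Cy5-labeled cDNA, hybridizes at 65° C. to a chip spanning every yeast gene, and expression is expressed as a ratio to untreated cells.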

Compound: CCCCC[C@H](O)CC(=O)CCc1ccc(O)c(OC)c1 [(13), gingerol]
- The level of expressed mRNA in the presence of chemical substance/The level of expressed mRNA in the absence of chemical substance (yeast gene YKL041W): 1.3
- The level of expressed mRNA in the presence of chemical substance/The level of expressed mRNA in the absence of chemical substance (yeast gene YKL096W): 0.1
- The level of expressed mRNA in the presence of chemical substance/The level of expressed mRNA in the absence of chemical substance (yeast gene YKL139W): 1.6
- The level of expressed mRNA in the presence of chemical substance/The level of expressed mRNA in the absence of chemical substance (yeast gene YKL165C): 3.2
- The level of expressed mRNA in the presence of chemical substance/The level of expressed mRNA in the absence of chemical substance (yeast gene YKL190W): 1.3
- The level of expressed mRNA in the presence of chemical substance/The level of expressed mRNA in the absence of chemical substance (yeast gene YKL193C): 2.1
- The level of expressed mRNA in the presence of chemical substance/The level of expressed mRNA in the absence of chemical substance (yeast gene YKR014C): 1.5
- The level of expressed mRNA in the presence of chemical substance/The level of expressed mRNA in the absence of chemical substance (yeast gene YLL051C): 1.3
- The level of expressed mRNA in the presence of chemical substance/The level of expressed mRNA in the absence of chemical substance (yeast gene YLR090W): 1.7
- The level of expressed mRNA in the presence of chemical substance/The level of expressed mRNA in the absence of chemical substance (yeast gene YLR093C): 1.3
- The level of expressed mRNA in the presence of chemical substance/The level of expressed mRNA in the absence of chemical substance (yeast gene YLR120C): 4.8
- The level of expressed mRNA in the presence of chemical substance/The level of expressed mRNA in the absence of chemical substance (yeast gene YLR136C): 2.9
- The level of expressed mRNA in the presence of chemical substance/The level of expressed mRNA in the absence of chemical substance (yeast gene YLR250W): 1.2
- The level of expressed mRNA in the presence of chemical substance/The level of expressed mRNA in the absence of chemical substance (yeast gene YLR251W): 1.7
- The level of expressed mRNA in the presence of chemical substance/The level of expressed mRNA in the absence of chemical substance (yeast gene YLR327C): 2.8
- The level of expressed mRNA in the presence of chemical substance/The level of expressed mRNA in the absence of chemical substance (yeast gene YMR004W): 2.2
- The level of expressed mRNA in the presence of chemical substance/The level of expressed mRNA in the absence of chemical substance (yeast gene YMR051C): 1.3
- The level of expressed mRNA in the presence of chemical substance/The level of expressed mRNA in the absence of chemical substance (yeast gene YMR104C): 1.5
- The level of expressed mRNA in the presence of chemical substance/The level of expressed mRNA in the absence of chemical substance (yeast gene YMR139W): 1.6
- The level of expressed mRNA in the presence of chemical substance/The level of expressed mRNA in the absence of chemical substance (yeast gene YMR219W): 2.1
- The level of expressed mRNA in the presence of chemical substance/The level of expressed mRNA in the absence of chemical substance (yeast gene YMR226C): 1.6
- The level of expressed mRNA in the presence of chemical substance/The level of expressed mRNA in the absence of chemical substance (yeast gene YMR262W): 1.7
- The level of expressed mRNA in the presence of chemical substance/The level of expressed mRNA in the absence of chemical substance (yeast gene YMR275C): 2.1
- The level of expressed mRNA in the presence of chemical substance/The level of expressed mRNA in the absence of chemical substance (yeast gene YMR276W): 1.9
- The level of expressed mRNA in the presence of chemical substance/The level of expressed mRNA in the absence of chemical substance (yeast gene YMR314W): 2.6
- The level of expressed mRNA in the presence of chemical substance/The level of expressed mRNA in the absence of chemical substance (yeast gene YNL006W): 2.3
- The level of expressed mRNA in the presence of chemical substance/The level of expressed mRNA in the absence of chemical substance (yeast gene YNL007C): 2.1
- The level of expressed mRNA in the presence of chemical substance/The level of expressed mRNA in the absence of chemical substance (yeast gene YNL093W): 2.2
- The level of expressed mRNA in the presence of chemical substance/The level of expressed mRNA in the absence of chemical substance (yeast gene YNL214W): 1.2
- The level of expressed mRNA in the presence of chemical substance/The level of expressed mRNA in the absence of chemical substance (yeast gene YNL223W): 2.0
- The level of expressed mRNA in the presence of chemical substance/The level of expressed mRNA in the absence of chemical substance (yeast gene YNL333W): 2.2
- The level of expressed mRNA in the presence of chemical substance/The level of expressed mRNA in the absence of chemical substance (yeast gene YNR007C): 1.5
- The level of expressed mRNA in the presence of chemical substance/The level of expressed mRNA in the absence of chemical substance (yeast gene YNR010W): 2.8
- The level of expressed mRNA in the presence of chemical substance/The level of expressed mRNA in the absence of chemical substance (yeast gene YNR035C): 1.7
- The level of expressed mRNA in the presence of chemical substance/The level of expressed mRNA in the absence of chemical substance (yeast gene YOL013C): 1.8
- The level of expressed mRNA in the presence of chemical substance/The level of expressed mRNA in the absence of chemical substance (yeast gene YOL016C): 3.0
- The level of expressed mRNA in the presence of chemical substance/The level of expressed mRNA in the absence of chemical substance (yeast gene YOL104C): 0.6
- The level of expressed mRNA in the presence of chemical substance/The level of expressed mRNA in the absence of chemical substance (yeast gene YOR117W): 2.3
- The level of expressed mRNA in the presence of chemical substance/The level of expressed mRNA in the absence of chemical substance (yeast gene YOR149C): 1.3
- The level of expressed mRNA in the presence of chemical substance/The level of expressed mRNA in the absence of chemical substance (yeast gene YOR181W): 1.2
- The level of expressed mRNA in the presence of chemical substance/The level of expressed mRNA in the absence of chemical substance (yeast gene YOR185C): 2.2
- The level of expressed mRNA in the presence of chemical substance/The level of expressed mRNA in the absence of chemical substance (yeast gene YOR355W): 1.1
- The level of expressed mRNA in the presence of chemical substance/The level of expressed mRNA in the absence of chemical substance (yeast gene YOR381W): 1.7
- The level of expressed mRNA in the presence of chemical substance/The level of expressed mRNA in the absence of chemical substance (yeast gene YOR383C): 1.2
- The level of expressed mRNA in the presence of chemical substance/The level of expressed mRNA in the absence of chemical substance (yeast gene YPL018W): 2.2
- The level of expressed mRNA in the presence of chemical substance/The level of expressed mRNA in the absence of chemical substance (yeast gene YPL089C): 1.3
- The level of expressed mRNA in the presence of chemical substance/The level of expressed mRNA in the absence of chemical substance (yeast gene YPL149W): 2.3
- The level of expressed mRNA in the presence of chemical substance/The level of expressed mRNA in the absence of chemical substance (yeast gene YPL203W): 1.5
- The level of expressed mRNA in the presence of chemical substance/The level of expressed mRNA in the absence of chemical substance (yeast gene YPL255W): 0.6
- The level of expressed mRNA in the presence of chemical substance/The level of expressed mRNA in the absence of chemical substance (yeast gene YPR108W): 2.6
